One assay has as its system HAd-C5-GFP. The assay can be described thus: Fluorescent plaque forming assay of adenoviral propagation (virus spread). As to conditions: HEK293 cells. Format: cell-based. How it is done:
Adenoviral propagation was quantified by fluorescent plaque forming assay with GFP expressing HAd-C5 vector in the presence of the compound as a measure of virus spread through multiple rounds of infection.
HEK293 cells were infected with 0.1 physical particles per cell (pp/cell) of E1-deficient GFP expressing HAd-C5-GFP vector for 24 hours followed by removal of the inoculums and overlay with 1% agarose supplemented with vehicle only (DMSO) or 5 µM of the compound of formula (IIIa).
Six days after infection, plaque sizes were measured by epifluorescence microscopy using Image J.
Cidofovir™, the standard clinical drug used against adenovirus infections in the clinic, is also included in this test.
The compounds were used at a concentration of 5 µM. Cidofovir was in particular used at even higher concentration, i.e. 10 and 20 µM.
DMSO was used as negative control.
Statistical analysis was carried out using unpaired Student t-test.

For the next assay, the target named is WW3-NEDD 4.2 peptide (Homo sapiens, UniProt Q96PU5). The assay can be described thus: MicroScale thermophoresis (MST) binding to FAM-labelled WW3 peptide of NEDD4.2. The conditions noted are these: 100 nM FAM-labelled peptide, 1x PBS pH 7.4, 5 % DMSO, 0.1 % Pluronic F-127, 25°C. As for the experimental part: (§1) For the MicroScale Thermophoresis (MST) experiments 1 mg of each FAM-labeled WW3_Nedd.4.1 ([…] KIPAH = SEQ ID NO: 1) and WW3_Nedd.4.2 peptide ([…] […] = SEQ ID NO: 2) (FAM = Fluorescein amidite) was used at >80% purity.
WW3-NEDD 4.2 peptide, sequence (Q96PU5 with tags, fused parts or gaps): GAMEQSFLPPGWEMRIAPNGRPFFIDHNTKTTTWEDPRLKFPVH
(§2) MicroScale thermophoresis binding experiments were carried out with final 100 nM FAM-labelled WW3_Nedd.4.1 and WW3_Nedd.4.2 in binding buffer (1x PBS pH 7.4, 5 % DMSO, 0.1 % Pluronic F-127). The concentration range of the compound of formula (IIIa) is indicated here-after: Table 1
(§3) The MST analyses were performed at 40 % MST power, 100 % LED power in standard capillaries on a Monolith NT.115 blue/green device at 25°C (NanoTemper Technologies, Munich, Germany) in duplicate technical runs in the same capillary. Thermophoresis + Tjump was analysed. The recorded fluorescence was normalised to fraction bound (0 = unbound, 1 = bound), and processed using the GraphPad Prism® 6 software and fitted using the KD fit formula derived from the law of mass action.
(In general: In MST a laser heats a spot of the sample, and binding alters the fluorescence response.)

The next assay deals with protein VI. Kind of assay: Ubiquitylation of RFP-tagged protein VI in NEDD4.2-GFP expressing cells (RFP-trap, western blot). Format: cell-based. The conditions noted are these: increasing amounts (0, 2, 5, 10, 25 µM) for 2h; NEDD4.2-GFP cells. How it is done: Stably expressing NEDD4.2-GFP cells were transfected with an expression vector encoding RFP-tagged protein VI WT (including the PPxY targeted by NEDD4 ubiquitin ligases through WW-domains, which are the target of the compounds) or protein VI M1 (with the PPxY targeted by NEDD4 ubiquitin ligases through WW-domains mutated to PGAA) and treated with increasing amounts of the compound of formula (IIIa) for 2h. RFP stands for Red Fluorescent Protein.
Protein VI was immunoprecipitated from drug treated cells using RFP-trap and analyzed by western blotting with anti-ubiquitin antibodies.
(§4) Samples were analyzed by western blot using anti-protein VI antibodies described in Martinez et al., J Virol. 2015 Feb;89(4):2121-35.
A general note: A western blot detects proteins with antibodies after separation by electrophoresis.

A further assay concerns the target T1, recombinant NEDD4.2 (Homo sapiens, UniProt Q96PU5).
T1 sequence (Q96PU5 1-975): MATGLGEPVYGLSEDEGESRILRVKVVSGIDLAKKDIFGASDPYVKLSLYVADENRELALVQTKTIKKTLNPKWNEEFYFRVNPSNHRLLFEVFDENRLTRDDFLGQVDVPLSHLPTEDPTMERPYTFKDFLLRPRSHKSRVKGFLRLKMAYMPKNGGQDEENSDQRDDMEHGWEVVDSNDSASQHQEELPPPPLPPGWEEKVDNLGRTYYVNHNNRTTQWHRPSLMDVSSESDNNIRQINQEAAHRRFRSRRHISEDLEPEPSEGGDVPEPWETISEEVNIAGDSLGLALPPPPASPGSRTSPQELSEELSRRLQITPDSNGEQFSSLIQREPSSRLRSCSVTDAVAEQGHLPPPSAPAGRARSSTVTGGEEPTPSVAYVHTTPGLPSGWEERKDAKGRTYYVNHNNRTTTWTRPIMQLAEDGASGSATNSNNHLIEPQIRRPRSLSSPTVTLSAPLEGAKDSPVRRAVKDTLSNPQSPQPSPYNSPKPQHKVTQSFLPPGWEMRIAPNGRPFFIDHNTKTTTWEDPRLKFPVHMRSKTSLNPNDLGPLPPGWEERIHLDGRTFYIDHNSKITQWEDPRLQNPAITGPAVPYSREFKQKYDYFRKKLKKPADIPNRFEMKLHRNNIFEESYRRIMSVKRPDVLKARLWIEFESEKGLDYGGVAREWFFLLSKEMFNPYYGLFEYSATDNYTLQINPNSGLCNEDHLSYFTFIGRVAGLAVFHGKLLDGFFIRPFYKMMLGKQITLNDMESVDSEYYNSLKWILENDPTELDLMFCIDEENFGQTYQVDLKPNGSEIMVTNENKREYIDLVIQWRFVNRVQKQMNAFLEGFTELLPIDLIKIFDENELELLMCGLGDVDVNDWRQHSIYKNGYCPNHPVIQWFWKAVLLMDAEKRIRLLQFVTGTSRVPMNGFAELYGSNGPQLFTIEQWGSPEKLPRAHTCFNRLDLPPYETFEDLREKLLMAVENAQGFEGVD
Kind of assay: In vitro ubiquitylation of protein VI released from adenovirus particles with recombinant NEDD4.2. The conditions noted are these: high concentrations (25 µM); recombinant NEDD4.2, 1h at 30°C. Format: biochemical. As for the experimental part:
For in vitro ubiquitylation reactions, purified Adenovirus particles were treated with mild heat to release protein VI as previously described in Wodrich et al. (2010 - PLoS Pathog. 6, e1000808), and in vitro ubiquitylation reactions were supplemented with recombinant NEDD4.2 and DMSO or the compound of formula (IIIa) and carried out for 1h at 30°C or left on ice.
as §4

The target of another assay is T2, WW3-domain of NEDD4 (Homo sapiens, UniProt P46934).
T2 construct: a peptide corresponding to the 45 amino acids of WW3-domain of NEDD4; made in house; host or cells: chemical synthesis
T2 sequence (P46934 834-878): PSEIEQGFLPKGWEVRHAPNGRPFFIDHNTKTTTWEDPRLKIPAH
The assay can be described thus: Solution NMR interaction study with synthetic WW3-domain peptide of NEDD4. In kind it is binding. The conditions noted are these: equimolar amounts of compound and NEDD4 peptide.

For another assay, the system named is U2OS cells. Kind of assay: Ubiquitin proteome by diGly peptide enrichment and LC-MS/MS. In kind it is cell-based, Homo sapiens. The conditions noted are these: 24h, compared to DMSO treated control cells. As for the experimental part: U2OS Cells were treated for 24h with two different concentrations of the compound of formula (IIIa) (2µM and 10µM) and were subjected to Mass Spec. analysis following diGly peptide enrichment to obtain changes in the Ubiquitin proteome.
Briefly, cells were collected following treatment (as above) and protein extracts generated using acetone precipitation. Total proteins were trypsin-digested and the resulting peptides purified through anti di-Gly affinity chromatography prior being sequenced by LC-MS/MS.

In another assay the target is WW3-NEDD 4.1 peptide (Homo sapiens, UniProt P46934). Kind of assay: MicroScale thermophoresis (MST) binding to FAM-labelled WW3 peptide of NEDD4.1. As for the experimental part:
as §1, §2, §3

Another assay has as its system GFP-NEDD4.2. The assay can be described thus: Localization of GFP-NEDD4.2 in U2OS cells (fluorescence microscopy). In kind it is cell-based, Homo sapiens. The conditions noted are these: U2OS cells stably expressing GFP-NEDD4.2, versus untreated cells. An excerpt:
(§5) U2OS cells (ATCC® HTB-96™) (Homo sapiens bone osteosarcoma) stably expressing low levels of GFP-NEDD4.1 or GFP-NEDD4.2 were generated through single copy flp-FRT integration (Bosse et al., Methods Mol Biol. 2013;1064:153-69.) and treated with the compound of formula (IIIa) or the control DMSO.

A further assay relates to GFP-NEDD4.1. Kind of assay: Localization of GFP-NEDD4.1 in U2OS cells (fluorescence microscopy). In kind it is cell-based, Homo sapiens. As to conditions: U2OS cells stably expressing GFP-NEDD4.1, versus DMSO.
Text: as §5

The subject of another assay is NEDD4.2-GFP. Kind of assay: Association of incoming fluorescently labelled adenoviruses with NEDD4.2-GFP (fluorescence microscopy). In kind it is cell-based, Homo sapiens. The conditions noted are these: 10µM; 15-30 min p.i. How it is done: GFP-NEDD4.2 expressing cells were infected in absence or presence of 10µM of the compound of formula (IIIa) with fluorescently labelled viruses and association between viruses and NEDD4.2-GFP was quantified using fluorescence microscopy.

Molecules are shown by their SMILES. Like-named read-outs stand apart in the source and are kept apart here.

Here are results for three compounds from patent EP3628663A1, “ANTIVIRAL COMPOUNDS” (priority 2018, dated 2020).

WW3-NEDD 4.1 peptide, sequence (P46934 834-878): as above

With `Nc1ccn(C[C@@H](CO)OCP(=O)(O)O)c(=O)n1` [Cidofovir, reference compound], the “inhibition of adenoviral propagation (plaque size)” value with HAd-C5-GFP (10 µM and 20 µM (highest non-cytotoxic concentrations), plaque size) was “did not show significant inhibition”.
Consider `O=C(/C=C(\C(=O)c1ccc(Cl)cc1Cl)n1ccnc1)c1ccc(Cl)cc1Cl` [Compound of formula (IIIa), (E)-1,4-Bis(2,4-dichlorophenyl)-2-(1H-imidazol-1-yl)but-2-ene-1,4-dione], for which the Kd on WW3-NEDD 4.2 peptide came out at 0.12 ± 0.039 µM; on WW3-NEDD 4.1 peptide (MST, 100 nM FAM-labelled peptide, 1x PBS pH 7.4, 5 % DMSO, 0.1 % Pluronic F-127, 25°C, read-out: WW3-NEDD 4.1 peptide KD) it was 0.058 ± 0.022 µM. Further, the “ubiquitylation of protein VI in cells” value with protein VI was “gradually impaired ubiquitylation of protein VI”. For the same compound, the “protein VI ubiquitylation in vitro” value on recombinant NEDD4.2 is recorded as “prevented protein VI ubiquitylation in vitro”. Also, the “interaction with the NEDD4 peptide (NMR chemical shift change)” value at WW3-domain of NEDD4 is on record as “interacts with the NEDD4 peptide”. Also, the “ubiquitylation of cellular proteins” value with U2OS cells (2µM) is on record as “protein ubiquitylation is reduced or increased for several cellular proteins”; in the assay with U2OS cells (10µM), “preferentially increases ubiquitylation of several cellular proteins”. The “higher affinity to the WW3 peptide domain target compared to the Imidazole control” value on WW3-NEDD 4.1 peptide (ratio of MST KD values, WW3-NEDD4.1 and WW3-NEDD4.2) is listed as 100-1000 fold. In addition, in the assay on GFP-NEDD4.2, the NEDD4.2 localization entry is reported as “accumulated strongly at cell-cell-contact sites as well as in a distinct perinuclear region”. Moreover, the “anti-adenoviral activity (plaque size)” value with HAd-C5-GFP (5 µM, 0.1 pp/cell HAd-C5-GFP, plaque size six days after infection, compared to DMSO) is recorded as “effective anti-adenoviral activity”. Also, in the assay with GFP-NEDD4.1, the NEDD4.1 localization result was “became largely immobile and relocated to a perinuclear region”. The “recruitment of NEDD4.2 to incoming AdV particles” value in the assay on NEDD4.2-GFP is “prevented the recruitment of NEDD4.2”.
With `c1c[nH]cn1` [Imidazole (control), Imidazole, reference compound], the figures for the Kd at WW3-NEDD 4.2 peptide and at WW3-NEDD 4.1 peptide were 90.4 ± 38.6 µM and 88.9 ± 28.4 µM, respectively.

The term Kd denotes a measure of binding affinity in units of concentration.
